According to patent publication EP1229027A1 (priority 1996, dated 1998):

Assays:
Phytophthora infestans = format: in vivo; conditions: Rate 300 ppm; tomato seedlings; evaluated 6 days after inoculation
Pythium ultimum = assay: Fungitoxicity against Pythium ultimum (mycelial dry weight growth in liquid asparagine-sucrose broth); format: cell-based; conditions: Globisporangium ultimum; 100 ppm of the compound; 48 hours at 25 °C; increase in mycelial dry weight compared to controls
Protocol: Compounds were tested for fungitoxicity against Pythium ultimum according to the procedures set forth below.
Test compounds were dissolved in dimethylsulfoxide at 20 mg/ml and 0.1 ml was added to 19.9 ml of a liquid asparagine-sucrose broth, prepared according to the method described in Erwin, D.C., and Katznelson, K., Canadian Journal of Microbiology 7, 15 (1971), in 9 cm petri dishes to give a concentration of 100 ppm of the compound. Each plate was inoculated with a mycelial plug, 7 mm in diameter, taken from the growing edge of a culture of Pythium ultimum grown on potato dextrose agar. Two replicate plates were used for each treatment. After growth for 48 hours at 25 °C with shaking on a gyrotary shaker at 60 rpm, the increase in mycelial dry weight was determined. Fungitoxicity was recorded as percent inhibition of growth as compared to controls lacking the test compounds. 2.

Plasmopara viticola = conditions: in vivo

SMILES	TLB (percent disease control) (Phytophthora infestans)	inhibition at 100 ppm (Pythium ultimum)	GDM (percent disease control) (Plasmopara viticola)
CCC(C)(NC(=O)c1ccc2nc(C)oc2c1)C(=O)CCl (stereo not shown) [Compound 2, N-(3-chloro-1-ethyl-1-methyl-2-oxopropyl)-2-methylbenzoxazole-6-carboxamide]	90%	92.2%	100%
CCC(C)(NC(=O)c1ccc2c(c1)NC(=O)CO2)C(=O)CCl (stereo not shown) [Compound 11, N-(3-chloro-1-ethyl-1-methyl-2-oxopropyl)-1,4-benzoxazine-3-one-6-carboxamide]	95%	34.3%	0%
CCC(C)(NC(=O)c1ccc2c(c1)NC(=O)CO2)C(=O)C(Cl)Cl (stereo not shown) [Compound 13, N-(3,3-dichloro-1-ethyl-1-methyl-2-oxopropyl)-1,4-benzoxazine-3-one-6-carboxamide]	–	60.8%	–
